Laboratory results from PubChem BioAssay (NCI).
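1) Cells in 96-well plates. 2) Compound, 48 h, 5 concentrations. 3) Linear interpolation between surrounding doses. 4) Unreached endpoint = highest concentration. TGI: total growth inhibition.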

Key:
Assay in all cases: NCI-60 cell line screen, 48 h
[1] = system: 786-0 renal
[2] = system: A498 renal
[3] = system: A549 NSCLC
[4] = system: ACHN renal
[5] = system: BT-549 breast
[6] = system: CAKI-1 renal
[7] = system: CCRF-CEM leukemia
[8] = system: COLO 205 colon
[9] = system: EKVX NSCLC
[10] = system: HCC-2998 colon
[11] = system: HCT-116 colon
[12] = system: HCT-15 colon
[13] = system: HOP-62 NSCLC
[14] = system: HOP-92 NSCLC
[15] = system: HS 578T breast
[16] = system: HT29 colon
[17] = system: IGROV1 ovarian
[18] = system: K-562 leukemia
[19] = system: KM12 colon
[20] = system: LOX IMVI melanoma
[21] = system: M14 melanoma
[22] = system: MALME-3M melanoma
[23] = system: MCF7 breast
[24] = system: MDA-MB-231 breast
[25] = system: MDA-MB-435
[26] = system: MDA-N
[27] = system: MOLT-4 leukemia
[28] = system: NCI-H226 lung
[29] = system: NCI-H23 lung
[30] = system: NCI-H460 lung
[31] = system: NCI-H522 lung
[32] = system: NCI/ADR-RES ovarian
[33] = system: OVCAR-3 ovarian
[34] = system: OVCAR-4 ovarian
[35] = system: OVCAR-5 ovarian
[36] = system: OVCAR-8 ovarian
[37] = system: PC-3 prostate
[38] = system: RPMI-8226 leukemia
[39] = system: RXF 393 renal
[40] = system: SF-268 CNS
[41] = system: SF-295 CNS
[42] = system: SF-539 CNS
[43] = system: SK-MEL-2 melanoma
[44] = system: SK-MEL-5 melanoma
[45] = system: SK-OV-3 ovarian
[46] = system: SN12C renal
[47] = system: SNB-19 CNS
[48] = system: SR leukemia
[49] = system: SW-620 colon
[50] = system: T-47D breast
[51] = system: TK-10 renal
[52] = system: U251 CNS
[53] = system: UACC-257 melanoma
[54] = system: UACC-62 melanoma
[55] = system: UO-31 renal
[56] = system: HL-60(TB) leukemia
[57] = system: SK-MEL-28 melanoma
[58] = system: SNB-75 CNS

Measured: TGI

CCc1n[nH]c(=O)n1NC(=O)CCCC(=O)O
not listed: [56] | [57] | [58]
> 100 µM: all other assays above

Cc1ccc2nc(NC(=O)C(=O)C3C(=O)NC(=S)NC3=O)sc2c1
not listed: [8] | [18] | [48]
> 100 µM: all other assays above
